Measured values reported in patent US5204311A, “Ethanediimidic acid bis[(arylalkylidene)hydrazide] color-formers” (Minnesota Mining and Manufacturing Company, priority 1991, dated 1993).

Tests used:
Format in all cases: physicochemical
[1] = Volatility: transfer from simulated donor sheet to receptor sheet; conditions: 71 ° C. overnight
Excerpt: The method utilized in the experiments to both define and evaluate the level of volatility was as follows. A single sheet piece of Grade #10 (20×12 cm) cheesecloth (AF & F., Item No. 588033, American Fiber and Finishing, Inc., Burlington, Mass.) was placed between a simulated donor sheet and a receptor sheet of a carbonless paper construction. The simulated donor sheet comprised a sheet of paper saturated with color-former of structure I, which was used to simulate a CB sheet with ruptured capsules. Pressure was then applied for 24 hours by placing 9 pounds of paper on top of the sheets, to simulate storage conditions of the paper packages. The formation of color on the receptor sheet, due to transfer of volatile color-former thereto, was used as an indication that the particular color-former was less than optimally desirable for carbonless paper constructions, i.e., was volatile. A compound was considered generally to be nonvolatile, within the meaning of the term as used herein to define the present invention and thus to define color-formers most acceptable for use in carbonless image transfer arrangements, if no color was formed after the simulated test was run for about 24 hours at 25° C. In some instances, if no color was formed after storage at room temperature (25° C.), successively higher temperatures were used, as for example 49° C., 60° C., and 71° C. […]

[2] = Color (Hunter coordinates) of Ni complex, swabbed on Ni-coated receptor (CF) sheet; design: key to Hunter coordinate a / Hunter Coordinates a: Hunter a: +a red, -a green; key to Hunter coordinate b / Hunter Coordinates b: Hunter b: +b yellow, -b blue
Method: In general, the colors of the complexes, as listed in Table 2 and Experiments 4, 6, and 7 below, were determined by preparing a 1% solution of the color-former or mixture of color-formers in an appropriate solvent. Unless otherwise indicated, the solvent was composed of a mixture of tributyl phosphate (26.5%), diethyl phthalate (17.6%), and cyclohexane (55.9%). The images were formed by applying two stripes of the solution to a substrate coated with a Ni^2+ coated receptor sheet using a cotton tipped applicator swab. Rapid and complete development of the image was achieved by passing the sheet through a hot shoe adjusted to 102° C., making a revolution every 10 seconds. The visually observed colors were measured and recorded.
One method of color measurement is to determine the color's position in color space. One color space system is the Hunter System; see F. W. Billmeyer, Jr., and M. Saltzman, Principles of Color Technology; John Wiley & Sons; New York, N.Y.; Ch. 2 & 3, 1981. In this system three mutually perpendicular axes (L, a, and b) are needed to define a color. "L" (+z axis) represents the lightness or darkness of the image; "a" (x axis) represents the amount of red or green (+a is red, -a is green); and "b" (y axis) represents the amount of yellow or blue (+b is yellow, -b is blue). By measuring a material's L, a, and b values, the color of one sample can be compared with that of other samples. Another value used in the Hunter System is Chroma (C). Chroma is defined by the equation [C=(a^2 +b^2)^1/2 ] and represents the distance of the image coordinates from the origin. The greater the Chroma, the more intense the image. Chroma is used to compare images cf the same hue. Because the color of a sample is also dependent upon the color temperature of the illuminating source, the angle at which the sample is illuminated, the angle at which the illumination is reflected, and the angle of the retina illuminated, these all need to be specified. Many instruments have been developed to record these values. One such instrument is the HunterLab LabScan II. This instrument is capable of automatically determining the L, a, and b values for a given sample, and was used for the following examples.
The L, a, and b color coordinates of the more uniform stripe were measured for 45°/0° reflectance on a HunterLab LabScan II, secondary observer, using illuminant C. The observed (image) color and the Hunter coordinates for Ni^2+ complexes of the yellow color-formers of this invention are given in Table 2.
A 1% solution of the condensation product in the encapsulation fill mix was swabbed onto a carbonless paper CF sheet (sold by the 3M Co. St. Paul, Minn.) with a cotton swab. The reflectance spectra had Hunter coordinates of: […]

[3] = Color of coated CB sheet before imaging; conditions: encapsulated, before imaging (Experiments 6, 7)
Method: The capsule slurry (10 g) was added to 65 g of a 1.5% aqueous sodium alginate solution. The mixture was applied to a coated paper using a bar coater with a 3 mil gap. The coating was allowed to dry at room temperature.
A 2% solution of the compound 1 in the capsule fill solvent of diethyl phthalate, tributyl phosphate, and cyclohexane was encapsulated by the procedure described in Experiment 5 above. A coating mixture of 10.0 g of capsule slurry, 2.5 g of Dow-620 butadiene-styrene latex, and 62.5 g of 1.5% sodium alginate slurry was coated onto paper by the draw down procedure described above.
A 7.5% solution comprising 5.45% N-(5-octanoylamido-2-metylpentyl)dithiooxamide/N-(5-octanoylamido-4-methylpentyl)dithiooxamide (G') mixture and 2.05% N,N'-di(5-octanoylamido-2-methylpentyl)dithiooxamide/N-(5-octanoylamido-2- methylpentyl)-N'-(5-octanoylamido-4-methylpentyl)dithiooxamide/N,N'-(5-octanoylamido-2-methylpentyl)dithiooxamide (G) mixture in the fill solvent mixture of diethyl phthalate, tributyl phosphate, and cyclohexanone was encapsulated by the procedure described above. A coating mixture of 10.0 g of capsule slurry, 2.5 g of Dow 620 styrene-butadiene latex, and 62.5 g of 1.5% sodium alginate solution was coated onto paper by the draw down procedure described in Experiment 5 above. […]

[4] = 1% solution in encapsulation fill mix swabbed onto 3M CF sheet (Experiments 2, 3)
[5] = Ni(II) complex, swab concn. 1%, 45°/0° reflectance, illuminant C (Table 2)

CC(C)(C)c1cc(C=NN=C(N)C(N)=NN=Cc2cc(C(C)(C)C)cc(C(C)(C)C)c2O)c(O)c(C(C)(C)C)c1 [Compound 1, ethanediimidic acid bis[(3,5-di-t-butylsalicylidene)hydrazide]]
volatility [1]: not volatile | Hunter coordinate L [2, 4]: 79.8 | Hunter coordinate a [2, 4]: -2.1 | Hunter coordinate b [2, 4]: 39.3 | color observed on the CF sheet ([2]; 1% solution swabbed (Experiments 2, 3)): yellow | Chroma ([2]; C=(a^2 +b^2)^1/2, Ni(II) complex, swab concn. 1% (Table 2)): 39.3 | Image Color ([2]; Ni(II) complex, swab concn. 1% (Table 2)): Yellow | Hunter Coordinates L [2, 5]: 79.8 | Hunter Coordinates a [2, 5]: -2.1 | Hunter Coordinates b [2, 5]: 39.3 | color of coated (CB) sheet [3]: neutral in color
